Laboratory results as given in US10150767B2, “Therapeutic compounds and uses thereof” (priority 2014, dated 2018).

Molecular target: TAF1-BD2 (Homo sapiens, UniProt P21675)
Assay: TAF1-BD2 TR-FRET binding assay
Conditions: Assay: TAF-1; biotinylated probe compound 1000, TR-FRET
Method: Specifically, in a 384 well ProxiPlate TAF1-BD2 (6 nM final) was combined with biotin-ligand (50 nM final) in 50 mM HEPES (pH 7.5), 50 mM NaCl, 1 mM TCEP, 0.01% (w/v) BSA, and 0.008% (w/v) Brij-35 either in the presence of DMSO (final 0.2% DMSO) or compound dilution series in DMSO. After 10 minutes incubation at room temperature, a mixture Eu-W1024 Anti-6×His antibody (Perkin Elmer AD0110) and SureLight™ Allophycocyanin-Streptavidin (APC-SA, Perkin Elmer CR130-100) were added to a final concentrations of 0.2 nMolar antibody and 25 nMolar APC-SA, respectively. After twenty minutes of equilibration, the plates were read on an Envision instrument and IC50s calculated using a four parameter non-linear curve fit.

SMILES	IC50 [nM]
Cn1cc(-c2ccc(C(=O)N3CCOCC3)cc2)c2cc[nH]c2c1=O [Example 30, 6-methyl-4-[4-(morpholine-4-carbonyl)phenyl]-1H-pyrrolo[2,3-c]pyridin-7-one]	350
Cn1cc(-c2ccc(C(=O)NCc3ccccc3)cc2)c2cc[nH]c2c1=O [Example 37, N-benzyl-4-(6-methyl-7-oxo-1H-pyrrolo[2,3-c]pyridin-4-yl)benzamide]	63
CN1CCC(c2cccc(-c3cn(C)c(=O)c4[nH]ccc34)c2)CC1 [Example 43, 6-methyl-4-[3-(1-methyl-4-piperidyl)phenyl]-1H-pyrrolo[2,3-c]pyridin-7-one]	680
CN1CCC(Cc2cccc(-c3cn(C)c(=O)c4[nH]ccc34)c2)CC1 [Example 46, 6-methyl-4-[3-[(1-methyl-4-piperidyl)methyl]phenyl]-1H-pyrrolo[2,3-c]pyridin-7-one]	440
